In patent US5807878A, “Tetrasubstituted imidazoles” (Uclaf; Roussel, priority 1994, dated 1998):
pIC50: −log10 of the molar value. Like-named read-outs stand apart in the source and are kept apart here.

Columns and labels:
[1] = biological target: T1, AT2 receptor of angiotensin II (Oryctolagus cuniculus, UniProt G1T351); test: Test on the AT2 receptor of angiotensin II (displacement of 125I angiotensin II, rabbit uterus membranes); type: binding; conditions: rabbit uterus membranes (estradiol pre-treated), 10 mM dithiothreitol preincubation, 25° C., 150 minutes, pH 7.4
T1 construct: A fresh membrane preparation obtained from rabbit's uterus is used; from tissue; host or cells: rabbit uterus membranes (estradiol-pretreated, homogenate preincubated with 10 mM dithiothreitol)
T1 sequence (G1T351 1-363): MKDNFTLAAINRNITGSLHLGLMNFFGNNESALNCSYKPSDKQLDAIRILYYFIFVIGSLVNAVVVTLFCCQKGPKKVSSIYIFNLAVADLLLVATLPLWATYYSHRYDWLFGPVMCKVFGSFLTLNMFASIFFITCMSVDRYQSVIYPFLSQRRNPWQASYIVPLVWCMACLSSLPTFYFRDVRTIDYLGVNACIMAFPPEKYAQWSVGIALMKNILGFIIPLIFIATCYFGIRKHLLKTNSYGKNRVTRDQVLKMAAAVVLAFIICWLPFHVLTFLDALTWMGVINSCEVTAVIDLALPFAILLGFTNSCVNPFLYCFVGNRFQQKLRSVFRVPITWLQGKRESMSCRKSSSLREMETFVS
Method: 2) Test on the AT2 receptor of angiotensin II
A fresh membrane preparation obtained from rabbit's uterus is used, pre-treated 4 days beforehand with 50 ug of estradiol administered by percutaneous route. The tissue is ground up in a polytron in a 50 mM Tris buffer pH 7.4 and the grinding is followed by 3 centrifugations at 30,000 g for 15 minutes with intermediate take up of the pellets in the Tris buffer pH 7.4.
The last pellets are suspended in an incubation buffer (20 mM Tris, 135 mM NaCl, 10 mM KCl, 5 mM glucose, 10 mM MgCl2 6H2 O), 0.3 mM PMSF, 0.1 mM bacitracin, 0.1 o/oo lysozyme, pH 7.4).
The homogenate obtained is preincubated for 20 minutes at 25° C. in the presence of 10 mM dithiothreitol, then brought back to 0°-4° C.
(§1) 1 ml aliquoted fractions are distributed in glass tubes and ^125 I angiotensin II (25,000 DPM/tube) and the product to be studied are added. The product is first tested at 3×10^-5 M three times. When the tested product displaces more than 50% of the radioactivity specifically bound to the receptor, it is tested again according to a range of 7 concentrations in order to determine the concentration which inhibits by 50% the radioactivity specifically bound to the receptor. In this way the 50% inhibitory concentration is determined.
(§2) The specific bond is determined by the addition of EXP 655 (=PD 123-177 from Warner-Lambert) at 10^-5 M (in triplicate). After incubation at 25° C. for 150 minutes, placing in a water bath at 0° C. for 5 minutes, filteration under vacuum and rinsing with Tris buffer pH 7.4, the radioactivity is counted in the presence of a scintillating solid.
(§3) The result is expressed directly as the 50% inhibitory concentration (IC50), that is to say as the concentration of product studied, expressed in nM, necessary to displace 50% of the specific radioactivity fixed to the receptor studied.

[2] = biological target: T2, AT1 receptor of angiotensin II (Rattus norvegicus, UniProt P25095); test: Test on the AT1 receptor of angiotensin II (displacement of 125I angiotensin II, rat liver membranes); type: binding; conditions: 25° C., 150 minutes, pH 7.4
T2 construct: A fresh membrane preparation obtained from rat's liver is used; from tissue; host or cells: rat liver membranes
T2 sequence (P25095 1-359): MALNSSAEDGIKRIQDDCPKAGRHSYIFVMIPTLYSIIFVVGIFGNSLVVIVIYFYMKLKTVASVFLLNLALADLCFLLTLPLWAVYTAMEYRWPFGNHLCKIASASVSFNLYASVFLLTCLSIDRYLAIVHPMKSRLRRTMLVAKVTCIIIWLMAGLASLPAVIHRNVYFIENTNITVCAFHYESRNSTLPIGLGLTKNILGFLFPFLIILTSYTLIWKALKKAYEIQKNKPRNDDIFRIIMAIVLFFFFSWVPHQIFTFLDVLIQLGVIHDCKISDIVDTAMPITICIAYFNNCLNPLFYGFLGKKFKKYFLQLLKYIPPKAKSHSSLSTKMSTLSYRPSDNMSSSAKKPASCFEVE
Method: 1--Test on the AT1 receptor of angiotensin II
A fresh membrane preparation obtained from rat's liver is used. The tissue is ground up in a polytron in a 50 mM Tris buffer pH 7.4, the grinding is followed by 3 centrifugations at 30,000 g for 15 minutes with intermediate take up of the pellets in the Tris buffer pH 7.4.
The last pellets are suspended in an incubation buffer (20 mM Tris, 135 mM NaCl, 10 mM KCl, 5 mM glucose, 135 mM MgCl2, 0.3 mM PMSF, 0.1 mM bacitracin, 0.1% lysozyme).
as §1, with “(The” for “The”, “times).” for “times.”, “determined).” for “determined.”
as §2, with “non-specific” for “specific”, “the product of Example 94 of the European Patent 0,253,310,” for “EXP 655 (=PD 123-177 from Warner-Lambert)”, “(three times).” for “(in triplicate).”
as §3

angiotensin II = test: Test for antagonistic activity of angiotensin II in the demedullated rat; type: in vivo, rat (male Sprague Dawley); conditions: angiotensin II 0.75 micrograms/kg, read-out: ID50 (50% inhibitory dose of the pressure effect of angiotensin II)
[3] = IV, injected 5 minutes before angiotensin II

SMILES	pIC50 [1]	pIC50 [2]	ED50 (angiotensin II; [3])	ED50 (angiotensin II; PO)
CCCc1nc(SC)c(C(=O)C[S+]([O-])c2ccccc2)n1Cc1ccc(-c2ccccc2S(=O)(=O)NC(=O)NCC2CCCC2)cc1 (racemic) [Example 46, (±) N-(((cyclopentylmethyl)amino)carbonyl) 4'-((4-(methylthio) 5-((phenylsulphinyl)acetyl) 2-propyl 1H-imidazol 1-yl)methyl) (1,1'-biphenyl) 2-sulphonamide]	8.60	9.40		
CCCc1nc(SC)c(C(=O)C[S+]([O-])c2ccccc2)n1Cc1ccc(-c2ccccc2S(=O)(=O)NC(=O)CCC2CCCC2)cc1 (racemic) [Example 47, (±) N-(4'-((4-(methylthio) 5-((phenylsulphinyl)acetyl) 2-propyl 1H-imidazol 1-yl)methyl) (1,1'-biphenyl-2yl)sulphonyl) cyclopentanepropanamide]	8.68	10.05		
CCCCc1nc(SC)c(C(=O)C(=O)O)n1Cc1ccc(-c2ccccc2S(=O)(=O)NC(=O)NCC2CCCCC2)cc1 [Example 7, 2-butyl 1-((2'-(((((cyclohexylmethyl)amino)carbonyl)amino)sulphonyl) (1,1'-biphenyl) 4-yl)methyl) 4-methylthio alpha oxo-1H-imidazole 5-acetic acid]	8.17	9.15		
CCCCc1nc(SC)c(C(=O)C[S+](C)[O-])n1Cc1ccc(-c2ccccc2S(=O)(=O)NC(=O)NCc2ccccc2)cc1 (stereo not drawn) [Example 9, 4'-((2-butyl 5-(2-(methylsulphinyl)acetyl) 4-(methylthio) 1H-imidazol 1-yl)methyl) N-(((phenylmethyl)amino)carbonyl) (1,1'-biphenyl) 2-sulphonamide]	7.82	9.52	0.06 mg/kg	0.7 mg/kg
CCCCc1nc(SC)c(C(=O)C(=O)O)n1Cc1ccc(-c2ccccc2S(=O)(=O)NC(=O)NCc2ccccc2)cc1 [Example 10, 2-butyl 4-(methylthio) alpha oxo 1-((2'-(((((phenylmethyl)amino)carbonyl)amino)sulphonyl) (1,1'-biphenyl) 4-yl)methyl) 1-H-imidazole 5-acetic acid]	7.42	9.74		
CCCCc1nc(SC)c(C(=O)C(=O)NCc2ccccc2)n1Cc1ccc(-c2ccccc2S(=O)(=O)NC(=O)NCc2ccccc2)cc1 [Example 11, 2-butyl 4-(methylthio) alpha oxo N-(phenylmethyl) 1-((2'-(((((phenylmethyl)amino)carbonyl)amino)sulphonyl) (1,1'-biphenyl) 4-yl)methyl) 1-H-imidazole 5-acetamide]	7.28	9.22		
CCCCc1nc(SC)c(C(=O)CC(=O)OCC)n1Cc1ccc(-c2ccccc2S(=O)(=O)NC(=O)NCCC)cc1 [Example 12]	7.08	9.70		
CCCCc1nc(SC)c(C(=O)Nc2nnn[nH]2)n1Cc1ccc(-c2ccccc2S(=O)(=O)NC(=O)NCCC)cc1 [Example 13]	7.62	9.62	0.12 mg/kg	
CCCc1nc(SC)c(C(=O)Nc2nn[nH]n2)n1Cc1ccc(-c2ccccc2S(=O)(=O)NC(=O)NCc2ccccc2)cc1 [Example 15, 4-(methylthio) 1-((2'-(((((phenylmethyl)amino)carbonyl)amino)sulphonyl) (1,1'-biphenyl) 4-yl)methyl) 2-propyl N-(2H-tetrazol 5-yl) 1H-imidazole 5-carboxamide]	8.70	9.70		
CCCc1nc(SC)c(C(=O)C[S+]([O-])c2ccccc2)n1Cc1ccc(-c2ccccc2S(=O)(=O)NC(=O)NCc2ccccc2)cc1 (stereo not drawn) [Example 20, 4'-((4-(methylthio) 5-(2-(phenylsulphinyl)acetyl) 2-propyl 1H-imidazol-1-yl)methyl) N-(((phenylmethyl)amino)carbonyl) (1,1'-biphenyl) 2-sulphonamide]	9.10	10.10	0.04 mg/kg	0.8 mg/kg
CCCCc1nc(SC)c(C(=O)CC(=O)OCC)n1Cc1ccc(-c2ccccc2S(=O)(=O)NC(=O)NCc2ccccc2)cc1 [Example 21, ethyl 2-butyl 4-(methylthio) beta-oxo-1-((2'-(((((phenylmethyl)amino)carbonyl)amino)sulphonyl) (1,1'-biphenyl) 4-yl)methyl) 1H-imidazole 5-propanoate]	9.00	10.10	0.08 mg/kg	
CCCc1nc(SC)c(C(=O)C[S+]([O-])c2ccccc2)n1Cc1ccc(-c2ccccc2S(=O)(=O)NC(=O)NCc2cccs2)cc1 (stereo not drawn) [Example 34, 4'-((4-(methylthio) 5-((phenylsulphinyl)acetyl) 2-propyl 1H-imidazol-1-yl)methyl) N-(((2-thienylmethyl)amino)carbonyl) (1,1'-biphenyl) 2-sulphonamide]	8.66	10.30		
